These results are taken from ChEMBL document CHEMBL3098005, “Structure activity relationships of fused bicyclic and urea derivatives of spirocyclic compounds as potent CCR1 antagonists” (Bioorg Med Chem Lett, 2014).

Data set [1] deals with T1, C-C chemokine receptor type 1 (Homo sapiens, UniProt P32246).
T1 sequence (P32246 whole entry): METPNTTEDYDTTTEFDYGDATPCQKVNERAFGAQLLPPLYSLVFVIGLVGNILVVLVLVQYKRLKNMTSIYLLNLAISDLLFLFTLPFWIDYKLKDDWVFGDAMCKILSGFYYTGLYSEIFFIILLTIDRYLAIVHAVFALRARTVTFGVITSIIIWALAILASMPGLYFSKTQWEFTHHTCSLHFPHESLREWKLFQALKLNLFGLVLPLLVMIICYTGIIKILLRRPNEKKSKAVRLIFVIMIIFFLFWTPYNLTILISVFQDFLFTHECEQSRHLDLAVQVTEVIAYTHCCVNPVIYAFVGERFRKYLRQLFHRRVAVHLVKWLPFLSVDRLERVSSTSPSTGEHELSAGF
In words: Displacement of [125I]MIP-1alpha from human recombinant CCR1 expressed in HEK293 cell membranes after 1.5 hrs by microbeta counting analysis. (In general: In a radioligand displacement assay an active substance lowers the binding of a labelled ligand.)

Data set [2] in a line: Metabolic stability in human liver microsomes. It is filed as ADME. The settings on record: read-out: Stability. Background: Liver microsomes are vesicles of endoplasmic reticulum, rich in cytochrome P450 enzymes.
Data set [3] has as its target Voltage-gated inwardly rectifying potassium channel KCNH2 (Homo sapiens, UniProt Q12809). The data set can be described thus: Inhibition of human ERG expressed in HEK cells after 3 hrs by ion flux electrophysiology.
Data set [4] concerns the target T2, C-C chemokine receptor type 1 (Rattus norvegicus, UniProt A6I4C9).
T2 sequence (A6I4C9 whole entry): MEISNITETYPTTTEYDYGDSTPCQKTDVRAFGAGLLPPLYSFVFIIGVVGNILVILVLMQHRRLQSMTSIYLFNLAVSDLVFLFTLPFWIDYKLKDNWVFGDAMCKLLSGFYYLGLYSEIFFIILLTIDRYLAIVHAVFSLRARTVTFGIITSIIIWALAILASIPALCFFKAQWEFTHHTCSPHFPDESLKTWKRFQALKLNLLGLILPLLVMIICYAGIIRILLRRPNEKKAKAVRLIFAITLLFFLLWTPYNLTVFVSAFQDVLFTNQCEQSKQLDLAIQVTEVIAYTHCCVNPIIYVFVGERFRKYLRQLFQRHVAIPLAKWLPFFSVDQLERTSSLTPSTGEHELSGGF
In words: Displacement of [125I]MIP-1alpha from rat CCR1.

The subject of data set [5] is Hepatocyte. The data set can be described thus: Metabolic stability in human hepatocytes measured per 10^6 cells. It is filed as ADME, cell-based.
Data set [6] in a line: Permeability across human Caco2 cells. It is filed as ADME, cell-based. The conditions noted are these: Caco-2, read-out: permeability. On the technique in general: Caco-2 cells form a polarised layer with tight junctions and transporters.

A value given as a limit tells only on which side of the number the result lay.

Voltage-gated inwardly rectifying potassium channel KCNH2, sequence (Q12809 whole entry): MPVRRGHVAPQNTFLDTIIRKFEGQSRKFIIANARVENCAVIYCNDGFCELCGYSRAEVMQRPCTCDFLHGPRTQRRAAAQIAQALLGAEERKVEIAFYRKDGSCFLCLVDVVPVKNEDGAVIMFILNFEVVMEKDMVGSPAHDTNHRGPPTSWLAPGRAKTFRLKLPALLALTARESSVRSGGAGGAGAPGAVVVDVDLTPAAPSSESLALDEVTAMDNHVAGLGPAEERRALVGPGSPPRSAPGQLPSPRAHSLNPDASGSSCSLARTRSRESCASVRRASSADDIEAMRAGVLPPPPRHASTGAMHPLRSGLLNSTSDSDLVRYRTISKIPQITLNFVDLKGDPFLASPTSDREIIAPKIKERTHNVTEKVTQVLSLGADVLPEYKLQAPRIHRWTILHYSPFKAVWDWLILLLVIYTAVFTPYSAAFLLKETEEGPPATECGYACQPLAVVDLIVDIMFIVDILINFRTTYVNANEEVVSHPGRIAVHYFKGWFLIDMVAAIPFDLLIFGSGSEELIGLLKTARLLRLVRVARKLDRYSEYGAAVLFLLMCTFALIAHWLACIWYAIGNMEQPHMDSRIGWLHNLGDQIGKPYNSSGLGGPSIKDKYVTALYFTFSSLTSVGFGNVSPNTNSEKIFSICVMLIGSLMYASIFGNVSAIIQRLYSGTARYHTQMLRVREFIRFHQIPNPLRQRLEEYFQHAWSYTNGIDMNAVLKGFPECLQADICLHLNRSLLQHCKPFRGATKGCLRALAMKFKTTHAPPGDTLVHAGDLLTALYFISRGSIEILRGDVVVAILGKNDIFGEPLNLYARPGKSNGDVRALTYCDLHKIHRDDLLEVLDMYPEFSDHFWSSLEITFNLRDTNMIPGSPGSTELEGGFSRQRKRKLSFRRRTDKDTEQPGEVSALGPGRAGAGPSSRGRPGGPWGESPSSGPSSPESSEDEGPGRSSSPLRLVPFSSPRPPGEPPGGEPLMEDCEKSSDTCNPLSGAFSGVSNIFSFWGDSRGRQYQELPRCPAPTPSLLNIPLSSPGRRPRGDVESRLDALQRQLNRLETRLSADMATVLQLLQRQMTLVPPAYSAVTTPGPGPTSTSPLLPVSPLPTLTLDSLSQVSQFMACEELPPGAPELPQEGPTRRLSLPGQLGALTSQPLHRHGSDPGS

The IC50 is the concentration that inhibits the measured activity by half. As for `N[C@H](COc1cccc2ccc(=O)[nH]c12)CN1CCC2(CC1)Cc1cc(F)ccc1O2`, the IC50 was 560 nM in data set [1], 1200 nM in data set [3] and “Not Active” in data set [4]. Further, the microsomal CLint in data set [2] is less than 10 µL/min/mg.

As for `CNC(=O)Nc1ccc(OC)cc1OC[C@@H](O)CN1CCC2(CC1)Cc1cc(F)ccc1O2`, the IC50 in data set [1] amounted to 13 nM; in data set [4] (read-out: IC50) it was 1780 nM. In addition, in data set [2], the microsomal CLint is 87.9 µL/min/mg.

Regarding `O=c1ccc2cccc(OC[C@@H](O)CN3CCC4(CC3)Cc3cc(Cl)ccc3O4)c2[nH]1`, the IC50 in data set [1] was 37 nM; in data set [4] it was “Not Active”. Also, in data set [2], the microsomal CLint turned out to be 12.5 µL/min/mg. For the same molecule, the Stability result in data set [5] is given as “Unstable”.

In the case of `Nc1nc2c(OC[C@@H](O)CN3CCC4(CC3)Cc3cc(Cl)ccc3O4)cccc2s1`, the IC50 in data set [1] was 1300 nM; in data set [4] it was “Not Active”.

For the molecule `Cc1cc2c(OC[C@@H](O)CN3CCC4(CC3)Cc3cc(Cl)ccc3O4)cccc2o1`, the figures for the IC50 in data set [1] and in data set [4] were 160 nM and “Not Active”, respectively. In data set [2], the microsomal CLint stood at 15 µL/min/mg.

On to `O=C(Nc1cc(Cl)c(O)cc1OC[C@@H](O)CN1CCC2(CC1)Cc1cc(Cl)ccc1O2)NC1CC1`, for which the IC50 in data set [1] was 1.8 nM; in data set [3] it was 1000 nM; in data set [4] (read-out: IC50) it was 16 nM. Further, the microsomal CLint in data set [2] is less than 11.4 µL/min/mg. This molecule gave a Stability in data set [5] of 20.7 µL/min.

For `COc1ccc(NC(=O)NC2CC2)c(OC[C@@H](O)CN2CCC3(CC2)Cc2cc(Cl)ccc2O3)c1`, the IC50 in data set [1] came out at 1.8 nM; in data set [4] (read-out: IC50) it was 50 nM. Further, the microsomal CLint in data set [2] is 114 µL/min/mg.

Consider `Cc1nc2c(OC[C@@H](O)CN3CCC4(CC3)Cc3cc(Cl)ccc3O4)cccc2s1`, for which the IC50 in data set [1] was 1300 nM; in data set [4], “Not Active”.

With `O=C1COc2cccc(OC[C@@H](O)CN3CCC4(CC3)Cc3cc(Cl)ccc3O4)c2N1`, the IC50 in data set [1] came out at 7.1 nM; in data set [3] it was 600 nM; in data set [4] (read-out: IC50), 1260 nM. Moreover, the microsomal CLint in data set [2] was 33.7 µL/min/mg. The Stability in data set [5] worked out at 7.8 µL/min. Further, the Papp in data set [6] was 11 ×10⁻⁶ cm/s.

In the case of `O=C(Nc1ccc(O)cc1OC[C@@H](O)CN1CCC2(CC1)Cc1cc(F)ccc1O2)NC1CC1`, the IC50 in data set [1] was determined as 0.63 nM; in data set [3], 3800 nM; in data set [4] (read-out: IC50), 101 nM. In addition, in data set [2], the microsomal CLint turned out to be 15.1 µL/min/mg. Moreover, the Stability in data set [5] was determined as 5.3 µL/min. In addition, the Papp in data set [6] worked out at 0.93 ×10⁻⁶ cm/s.

As to `O=C(Nc1ccccc1OC[C@@H](O)CN1CCC2(CC1)Cc1cc(Cl)ccc1O2)N1CCCC1`, the IC50 in data set [1] was determined as 1.4 nM. Moreover, the microsomal CLint in data set [2] was more than 200 µL/min/mg. For the same molecule, in data set [6], the Papp is 3.5 ×10⁻⁶ cm/s.

For the molecule `O=C(Nc1ccc(O)cc1OC[C@@H](O)CN1CCC2(CC1)Cc1cc(Cl)ccc1O2)NC1CC1`, the IC50 in data set [1] was 0.89 nM; in data set [4] (read-out: IC50) it was 50 nM. Further, in data set [2], the microsomal CLint is less than 10 µL/min/mg. In data set [5], this molecule showed a Stability of 6.4 µL/min. For the same molecule, the Papp in data set [6] came out at 2.67 ×10⁻⁶ cm/s.

`N[C@H](COc1cccc2c1NC(=O)CO2)CN1CCC2(CC1)Cc1cc(F)ccc1O2`: the figures for the IC50 in data set [1] and in data set [4] were 79 nM and “Not Active”, respectively. The microsomal CLint in data set [2] was less than 10 µL/min/mg.

Regarding `NC(=O)Nc1ccc(O)cc1OC[C@@H](O)CN1CCC2(CC1)Cc1cc(Cl)ccc1O2`, the IC50 was 3.2 nM in data set [1], more than 8900 nM in data set [3] and 1580 nM in data set [4] (read-out: IC50). The microsomal CLint in data set [2] is less than 10 µL/min/mg. In data set [5], this molecule had a Stability of less than 3.8 µL/min. Besides, in data set [6], the Papp worked out at 0.5 ×10⁻⁶ cm/s.

As to `NC(=O)Nc1ccc(F)cc1OC[C@@H](O)CN1CCC2(CC1)Cc1cc(Cl)ccc1O2`, the IC50 amounted to 5.6 nM in data set [1] and 1620 nM in data set [4] (read-out: IC50). Further, in data set [2], the microsomal CLint came out at 17 µL/min/mg. This molecule came in with a Stability in data set [5] of 5.7 µL/min. Besides, the Papp in data set [6] worked out at 16 ×10⁻⁶ cm/s.

`COc1ccc(NC(=O)NC2CC2)c(OC[C@@H](O)CN2CCC3(CC2)Cc2cc(F)ccc2O3)c1`: the figures for the IC50 in data set [1] and in data set [4] (read-out: IC50) were 2.2 nM and 90 nM, respectively. For the same molecule, the microsomal CLint in data set [2] came to 133 µL/min/mg.

As to `CNC(=O)Nc1ccc(O)cc1OC[C@@H](O)CN1CCC2(CC1)Cc1cc(F)ccc1O2`, the IC50 in data set [1] is 3.2 nM; in data set [3] it was 13100 nM. Further, the microsomal CLint in data set [2] was less than 10 µL/min/mg. For the same molecule, the Stability in data set [5] turned out to be 10.7 µL/min.

Consider `CNC(=O)Nc1ccc(OC)cc1OC[C@@H](O)CN1CCC2(CC1)Cc1cc(Cl)ccc1O2`, for which the IC50 in data set [1] is 4.5 nM; in data set [4] (read-out: IC50) it was 447 nM. In addition, in data set [2], the microsomal CLint amounted to 71.2 µL/min/mg.

Consider `O=c1[nH]c(=O)c2cccc(OC[C@@H](O)CN3CCC4(CC3)Cc3cc(Cl)ccc3O4)c2[nH]1`, for which the figures for the IC50 in data set [1] and in data set [4] (read-out: IC50) were 560 nM and more than 6000 nM, respectively.

Take `CNC(=O)Nc1ccc(O)cc1OC[C@@H](O)CN1CCC2(CC1)Cc1cc(Cl)ccc1O2`: the IC50 worked out at 1.3 nM in data set [1], 4600 nM in data set [3] and 1760 nM in data set [4] (read-out: IC50). Also, the microsomal CLint in data set [2] is less than 10 µL/min/mg. This molecule also registered a Stability in data set [5] of 5.4 µL/min. Further, in data set [6], the Papp came to 9 ×10⁻⁶ cm/s.

With `NC(=O)Nc1ccccc1OC[C@@H](O)CN1CCC2(CC1)Cc1cc(Cl)ccc1O2`, the IC50 in data set [1] stood at 6.7 nM; in data set [3] it was 400 nM; in data set [4] (read-out: IC50), 2110 nM. Moreover, the microsomal CLint in data set [2] is 21.5 µL/min/mg. Further, the Stability in data set [5] was less than 3 µL/min. Moreover, the Papp in data set [6] was found to be 14 ×10⁻⁶ cm/s.

For the molecule `O=C1CCc2cccc(OC[C@@H](O)CN3CCC4(CC3)Cc3cc(Cl)ccc3O4)c2N1`, the IC50 in data set [1] is 32 nM; in data set [3], 500 nM; in data set [4], “Not Active”. In addition, the microsomal CLint in data set [2] came to 65 µL/min/mg. For the same molecule, the Stability entry in data set [5] is recorded as “Unstable”. In addition, the Papp in data set [6] is 16 ×10⁻⁶ cm/s.
